Experimental data from PubChem BioAssay (NCI).
Several values for one entry are separate records, joined by “and”; a condition that tells them apart may be missing. Equal values may be shown once.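 Briefly, cells in 96-well plates were exposed to five compound concentrations for 48 h, and endpoints were estimated by linear interpolation. GI50 marks 50% less growth. The concentration for full growth arrest is given as TGI.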

How the values were obtained:
Assay in all cases: NCI tumour cell line growth inhibition, 48 h
K-562 leukemia = system: K-562 leukemia
MDA-MB-231 breast = system: MDA-MB-231 breast
SW-620 colon = system: SW-620 colon
SK-MEL-5 melanoma = system: SK-MEL-5 melanoma
HS 578T breast = system: HS 578T breast
NCI-H522 lung = system: NCI-H522 lung
TK-10 renal = system: TK-10 renal
NCI-H23 lung = system: NCI-H23 lung
OVCAR-5 ovarian = system: OVCAR-5 ovarian
SK-MEL-28 melanoma = system: SK-MEL-28 melanoma

SMILES | GI50 (K-562 leukemia) | TGI (K-562 leukemia) | GI50 (MDA-MB-231 breast) | TGI (MDA-MB-231 breast) | GI50 (SW-620 colon) | TGI (SW-620 colon) | GI50 (SK-MEL-5 melanoma) | TGI (SK-MEL-5 melanoma) | GI50 (HS 578T breast) | TGI (HS 578T breast) | GI50 (NCI-H522 lung) | TGI (NCI-H522 lung) | GI50 (TK-10 renal) | TGI (TK-10 renal) | GI50 (NCI-H23 lung) | TGI (NCI-H23 lung) | GI50 (OVCAR-5 ovarian) | TGI (OVCAR-5 ovarian) | GI50 (SK-MEL-28 melanoma) | TGI (SK-MEL-28 melanoma)
COc1ccc(/C=C2/SC(Nc3nc(-c4nc(NC5=NC(=O)/C(=C\c6ccc(OC)cc6)S5)sc4C)c(C)s3)=NC2=O)cc1 | 0.631 µM | > 16.2 µM | 1.35 µM | 7.14 µM | 1.31 µM | > 50 µM | 0.282 µM | 3.93 µM | 0.288 µM | 1.61 µM | 2.14 µM | > 25.9 µM | 0.172 µM | 0.77 µM | 0.944 µM | 4.97 µM | 5.18 µM | 24.5 µM | – | –
CCCCCCCCCCCCOC1C(CNC(=O)C2OC3OC(C)(C)OC3C2NC(=O)CN2CCN(c3ccc(OC)cc3)CC2)OC2OC(C)(C)OC21 (stereo not given) | 3.31 µM | 11.2 µM | 5.65 µM | 17.8 µM | 3.75 µM | 28.3 µM | 4.39 µM | 16.1 µM | 3.78 µM | 17 µM | 4.92 µM | 17.4 µM | 3.96 µM | 13.4 µM | 9.68 µM | 32 µM | 2.52 µM | 7.5 µM | 5.86 µM | 23.3 µM
O=[N+]([O-])c1cc([N+](=O)[O-])c(Nn2c3ccccc3c3ccccc32)c([N+](=O)[O-])c1 | 0.297 µM | > 100 µM | – | – | 0.366 µM | 23.7 µM and 3.56 µM | 0.216 µM | 4.53 µM and 0.506 µM | 0.366 µM | – | 0.253 µM | 1.88 µM and 0.838 µM | 0.315 µM | 11 µM and > 100 µM | 0.313 µM | 4.55 µM and 3.96 µM | 0.338 µM | 26.7 µM and 13.5 µM | 0.483 µM | 51.2 µM and 14.9 µM
CCN(Cc1cccc(Cl)c1)c1ccc(CO)c(Cl)c1 | 1.65 µM | > 50 µM | 12.9 µM | 30.2 µM | 1.56 µM | 18.1 µM | 5.73 µM | 19.9 µM | 13.6 µM | 37.5 µM | 12.8 µM | 27.1 µM | 0.0588 µM | 0.321 µM | 7.51 µM | 23.7 µM | 0.222 µM | 1.25 µM | 14.5 µM | 28.7 µM
Cn1c2c(c3ccccc31)CCN1C(=O)CCC21 (stereo not given) | – | > 10 µM | – | > 10 µM | – | > 10 µM | – | > 10 µM | – | > 10 µM | – | > 10 µM | – | > 10 µM | – | > 10 µM | – | > 10 µM | – | > 10 µM
C=CCC(N[C@@H](CO)c1ccccc1)c1cn(C(=O)OCC)c2ccccc12 (stereo not given in full) | 22.6 µM | > 100 µM | 20.6 µM | 43.5 µM | 28.6 µM | > 100 µM | 14.2 µM | 28.9 µM | 21 µM | 40.3 µM | 21.9 µM | 46.8 µM | 23.2 µM | 73.6 µM | 20.5 µM | 49.6 µM | 23.3 µM | 66.1 µM | 34.1 µM | > 100 µM
